Reference: patent US12077503B2, “Substituted cyclic amides and their use as herbicides” (FMC CORPORATION, priority 2015, dated 2024)

Experiments:
Format in all cases: in vivo
Kochia (Kochia scoparia) [1] = experiment: Test A preemergence; settings: Bassia scoparia, pre-emergence, 240 h, preemergence, 0 to 100 scale where 0 is no effect and 100 is complete control, read-out: Kochia plant response rating; for pest or weed control at 125 g/ha: 125 g ai/ha, approx. 10 d; for pest or weed control at 500 g/ha: 500 g ai/ha
Summary of the method: (§1)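 Seeded soil received test chemicals as a preemergence directed spray, and seedlings at one to two leaves, 2–10 cm tall, received them postemergence, in a non-phytotoxic, surfactant-containing solvent mixture. Pots were held in a greenhouse for approximately 10 d, then rated for injury from 0, no effect, to 100, complete control.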

[2] = test system: barnyardgrass (Echinochloa crus-galli); experiment: Test A preemergence; settings: Echinochloa crus-galli, pre-emergence, 240 h, preemergence, 0 to 100 scale where 0 is no effect and 100 is complete control, read-out: Barnyardgrass plant response rating; for pest or weed control at 125 g/ha: 125 g ai/ha, approx. 10 d; for pest or weed control at 500 g/ha: 500 g ai/ha
Summary of the method: as §1

[3] = test system: giant foxtail (Setaria faberii); experiment: Test A preemergence; settings: Setaria faberi, pre-emergence, 240 h, preemergence, 0 to 100 scale where 0 is no effect and 100 is complete control, read-out: Foxtail, Giant plant response rating; for pest or weed control at 125 g/ha: 125 g ai/ha, approx. 10 d; for pest or weed control at 500 g/ha: 500 g ai/ha
Summary of the method: as §1

[4] = test system: pigweed (Amaranthus retroflexus); experiment: Test A preemergence; settings: Amaranthus retroflexus, pre-emergence, 240 h, preemergence, 0 to 100 scale where 0 is no effect and 100 is complete control, read-out: Pigweed plant response rating; for pest or weed control at 125 g/ha: 125 g ai/ha, approx. 10 d; for pest or weed control at 500 g/ha: 500 g ai/ha
[5] = test system: ragweed (common ragweed, Ambrosia elatior); experiment: Test A preemergence; settings: Ambrosia artemisiifolia, pre-emergence, 240 h, preemergence, 0 to 100 scale where 0 is no effect and 100 is complete control, read-out: Ragweed plant response rating; for pest or weed control at 125 g/ha: 125 g ai/ha, approx. 10 d; for pest or weed control at 500 g/ha: 500 g ai/ha
Summary of the method: as §1

[6] = test system: ryegrass, Italian (Italian ryegrass, Lolium multiflorum); experiment: Test A preemergence; settings: Lolium multiflorum, pre-emergence, 240 h, preemergence, 0 to 100 scale where 0 is no effect and 100 is complete control, read-out: Ryegrass, Italian plant response rating; for pest or weed control at 125 g/ha: 125 g ai/ha, approx. 10 d; for pest or weed control at 500 g/ha: 500 g ai/ha
Summary of the method: as §1

Kochia (Kochia scoparia) [7] = experiment: Test A postemergence; settings: Bassia scoparia, post-emergence, 240 h, postemergence, read-out: Kochia plant response rating; for pest or weed control at 125 g/ha: 125 g ai/ha, visual injury on 0 to 100 scale (0 no effect, 100 complete control), approx. 10 d; for pest or weed control at 500 g/ha: 500 g ai/ha, 0 to 100 scale, 0 is no effect, 100 is complete control
Summary of the method: as §1

[8] = test system: barnyardgrass (Echinochloa crus-galli); experiment: Test A postemergence; settings: Echinochloa crus-galli, post-emergence, 240 h, postemergence, read-out: Barnyardgrass plant response rating; for pest or weed control at 125 g/ha: 125 g ai/ha, visual injury on 0 to 100 scale (0 no effect, 100 complete control), approx. 10 d; for pest or weed control at 500 g/ha: 500 g ai/ha, 0 to 100 scale, 0 is no effect, 100 is complete control
Summary of the method: as §1

[9] = test system: blackgrass (Alopecurus myosuroides); experiment: Test A postemergence; settings: Alopecurus myosuroides, post-emergence, 240 h, postemergence, read-out: Blackgrass plant response rating; for pest or weed control at 125 g/ha: 125 g ai/ha, visual injury on 0 to 100 scale (0 no effect, 100 complete control), approx. 10 d; for pest or weed control at 500 g/ha: 500 g ai/ha, 0 to 100 scale, 0 is no effect, 100 is complete control
Summary of the method: as §1

[10] = test system: pigweed (Amaranthus retroflexus); experiment: Test A postemergence; settings: Amaranthus retroflexus, post-emergence, 240 h, postemergence, read-out: Pigweed plant response rating; for pest or weed control at 125 g/ha: 125 g ai/ha, visual injury on 0 to 100 scale (0 no effect, 100 complete control), approx. 10 d; for pest or weed control at 500 g/ha: 500 g ai/ha, 0 to 100 scale, 0 is no effect, 100 is complete control
Summary of the method: as §1

[11] = test system: barnyardgrass (Echinochloa crus-galli); experiment: Test B flooded paddy test; settings: Echinochloa crus-galli, 250 g ai/ha, Flood; 0 to 100 scale where 0 is no effect and 100 is complete control; read-out: Barnyardgrass plant response rating
Summary of the method: (§2)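 Flooding to 3 cm over soil accompanied treatment, which consisted of adding compound to the standing water around 2-leaf plants; depth was then maintained. Visual assessment versus controls followed at 13 to 15 d (scale 0–100, 0 meaning no effect).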

[12] = test system: ducksalad (Heteranthera limosa); experiment: Test B flooded paddy test; settings: Heteranthera limosa, 250 g ai/ha, Flood; 0 to 100 scale where 0 is no effect and 100 is complete control; read-out: Ducksalad plant response rating
Summary of the method: as §2

rice (Oryra sativa) = experiment: Test B flooded paddy test; settings: Oryza sativa, 250 g ai/ha, Flood; 0 to 100 scale where 0 is no effect and 100 is complete control; read-out: Rice plant response rating
Summary of the method: as §2

[13] = test system: sedge, umbrella (small-flower umbrella sedge, Cyperus difformis); experiment: Test B flooded paddy test; settings: Cyperus difformis, 250 g ai/ha, Flood; 0 to 100 scale where 0 is no effect and 100 is complete control; read-out: Sedge, Umbrella plant response rating
Summary of the method: as §2

Row | Structure (SMILES) | pest or weed control at 125 g/ha (Kochia (Kochia scoparia) [1]) [%] | pest or weed control at 500 g/ha (Kochia (Kochia scoparia) [1]) [%] | pest or weed control at 125 g/ha [2] [%] | pest or weed control at 500 g/ha [2] [%] | pest or weed control at 125 g/ha [3] [%] | pest or weed control at 500 g/ha [3] [%] | pest or weed control at 125 g/ha [4] [%] | pest or weed control at 500 g/ha [4] [%] | pest or weed control at 125 g/ha [5] [%] | pest or weed control at 500 g/ha [5] [%] | pest or weed control at 125 g/ha [6] [%] | pest or weed control at 500 g/ha [6] [%] | pest or weed control at 125 g/ha (Kochia (Kochia scoparia) [7]) [%] | pest or weed control at 500 g/ha (Kochia (Kochia scoparia) [7]) [%] | pest or weed control at 125 g/ha [8] [%] | pest or weed control at 500 g/ha [8] [%] | pest or weed control at 125 g/ha [9] [%] | pest or weed control at 500 g/ha [9] [%] | pest or weed control at 125 g/ha [10] [%] | pest or weed control at 500 g/ha [10] [%] | further results
1 | CC(C)Oc1ccc([C@H]2CNC(=O)[C@@H]2C(=O)Nc2ccc(F)cc2F)cc1 [Compound 1137] | 0 | 0 | 0 | 0 | 0 | 0 | 0 | 0 | 0 | 0 | 0 | 0 | 0 | 0 | 0 | 0 | 0 | 0 | 0 | 0 | pest or weed control at 250 g/ha [11]: 0%; pest or weed control at 250 g/ha [12]: 0%; pest or weed control at 250 g/ha (rice (Oryra sativa)): 0%; pest or weed control at 250 g/ha [13]: 0%
2 | CCc1cc(CC)cc([C@H]2CNC(=O)[C@@H]2C(=O)Nc2ccccc2F)c1 [Compound 1138] | 0 | 80 | 90 | 90 | 90 | 90 | 0 | 0 | 0 | 0 | 30 | 50 | 0 | 0 | 90 | 90 | 30 | 60 | 0 | 0 | pest or weed control at 250 g/ha [11]: 60%; pest or weed control at 250 g/ha [12]: 75%; pest or weed control at 250 g/ha (rice (Oryra sativa)): 0%; pest or weed control at 250 g/ha [13]: 0%
